Assay results taken from patent US11629171B2, “Beta-hairpin peptidomimetics” (POLYPHOR AG, priority 2017, dated 2023).
Values after ≈ are worked out from the molar mass of the structure shown. Where a SMILES comes first, the peptide text is derived from it. Bridges are numbered along the chain shown (N, C = ends). Roman numbers before positions name the chains, in order. [ ]: non-standard residue; d: D form. Thr(ol) = C[C@@H](O)[C@H](N)CO; aThr = C[C@H](O)[C@H](N)C(=O)O; Pen = CC(C)(S)[C@H](N)C(=O)O; Tle = CC(C)(C)[C@H](N)C(=O)O; Hiv = CC(C)[C@H](O)C(=O)O; dDab = NCC[C@@H](N)C(=O)O; Dab = NCC[C@H](N)C(=O)O; Abu = CC[C@H](N)C(=O)O; Dap = NC[C@H](N)C(=O)O

Legend:
Format in all cases: cell-based
[1] = system: human red blood cells (hRBC); experiment: Hemolysis; conditions: red cells of human, 1 h, 200
Procedure, shortened: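 Percent hemolysis relative to 2% Triton X-100 (100%) and PBS/10% water (0%), from blank-corrected OD540 of diluted supernatants. Peptides tested at 200 μg/mL against 20% (v/v) washed human erythrocytes, 1 h, 37° C, shaking at 300 rpm.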

[2] = system: Pseudomonas aeruginosa ATCC 27853; conditions: ATCC 27853
Procedure, shortened: (§1)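 Visible-growth endpoint after 18-20 h at 35° C defines the MIC (μg/mL). Setup: CLSI broth microdilution, MH-II cation-adjusted broth with P-80 at 0.002% final, inoculum of approximately 10^6 CFU/mL, two-fold serial peptide dilutions.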

[3] = system: Enterobacter cloacae 848840; conditions: 848840
Procedure, shortened: as §1

Escherichia coli 926415 = conditions: 926415
Procedure, shortened: as §1

[4] = system: Klebsiella pneumoniae SSI #3010; conditions: SSI #3010
Procedure, shortened: as §1

[5] = system: Escherichia coli ATCC 25922; conditions: ATCC 25922
Procedure, shortened: as §1

[6] = system: Klebsiella pneumoniae 968733; conditions: 968733
Procedure, shortened: as §1

[7] = system: Acinetobacter baumannii 872842; conditions: 872842
Procedure, shortened: as §1

[8] = system: Acinetobacter baumannii DSM 30008; conditions: DSM 30008
Procedure, shortened: as §1

| Compound | Hemolysis at 200 μg/mL [1] | MIC [2] | MIC [3] | MIC (Escherichia coli 926415) | MIC [4] | MIC [5] | MIC [6] | MIC [7] | MIC [8] |
| --- | --- | --- | --- | --- | --- | --- | --- | --- | --- |
| CC(=O)N[C@H](C(=O)N[C@H]1CCNC(=O)CC[C@@H](C(=O)N[C@@H](CO)C(N)=O)NC(=O)[C@H](C(C)(C)C)NC(=O)[C@H](CO)NC(=O)[C@H](Cc2c[nH]c3ccccc23)NC(=O)[C@H](CO)NC(=O)[C@@H](CCN)NC(=O)[C@H](CCC(=O)N[C@@H](CCN)C(=O)N[C@H](C(=O)N[C@@H](CN)C(=O)N[C@H]2CCNC(=O)[C@H]([C@@H](C)O)NC(=O)[C@H](CCN)NC(=O)[C@H](CCN)NC(=O)[C@H](CC(C)C)NC(=O)[C@@H](CC(C)C)NC(=O)[C@H](CCN)NC2=O)[C@@H](C)O)NC(=O)[C@H](CN)NC(=O)[C@H](Cc2ccc(O)cc2)NC1=O)C(C)C [Ex. 146] (I: Ac-V[Dab]Y[Dap]E[dDab]SWS[Tle]ES-NH2 / II: [Dab]T[Dap][Dab][Dab][dL]L[Dab][Dab]T; lactam I:2-I:11, II:4-II:C; amide I:5-II:N) | <1% | 0.125 µg/mL (≈ 0.052 µM) | 0.25 µg/mL (≈ 0.104 µM) | 0.25 µg/mL (≈ 0.104 µM) | 0.0625 µg/mL (≈ 0.026 µM) | 0.0625 µg/mL (≈ 0.026 µM) | 0.25 µg/mL (≈ 0.104 µM) | 0.125 µg/mL (≈ 0.052 µM) | 0.0625 µg/mL (≈ 0.026 µM) |
| CC(C)C[C@@H]1NC(=O)[C@@H](CC(C)C)NC(=O)[C@H](CCN)NC(=O)[C@@H](NC(=O)[C@H](CCN)NC(=O)[C@@H](NC(=O)[C@H](CCN)NC(=O)CC[C@@H]2NC(=O)[C@H](CN)NC(=O)[C@H](Cc3ccc(O)cc3)NC(=O)[C@@H](NC(=O)[C@@H](O)C(C)C)CSSC[C@@H](C(=O)N[C@H](CO)[C@@H](C)O)NC(=O)[C@H](C(C)(C)C)NC(=O)[C@H](CCC(=O)O)NC(=O)[C@H](Cc3c[nH]c4ccccc34)NC(=O)[C@H]([C@@H](C)O)NC(=O)[C@@H](CCN)NC2=O)[C@@H](C)O)CCNC(=O)[C@H]([C@@H](C)O)NC(=O)[C@H](CCN)NC(=O)[C@H](CCN)NC1=O [Ex. 90] (I: H-[Hiv]CY[Dap]E[dDab]TWE[Tle]C[Thr(ol)] / II: [Dab]T[Dab][Dab][Dab][dL]L[Dab][Dab]T; disulfide I:2-I:11; amide I:5-II:N; lactam II:4-II:C) | <1% | 0.25 µg/mL (≈ 0.103 µM) | 0.25 µg/mL (≈ 0.103 µM) | 0.5 µg/mL (≈ 0.206 µM) | 0.125 µg/mL (≈ 0.0515 µM) | 0.0625 µg/mL (≈ 0.0257 µM) | 0.25 µg/mL (≈ 0.103 µM) | 0.125 µg/mL (≈ 0.0515 µM) | 0.125 µg/mL (≈ 0.0515 µM) |
| CC(=O)N[C@H](C(=O)N[C@H]1CSSC[C@@H](C(=O)N[C@@H](CO)C(N)=O)NC(=O)[C@H](C(C)(C)C)NC(=O)[C@H](CO)NC(=O)[C@H](Cc2c[nH]c3ccccc23)NC(=O)[C@H]([C@@H](C)O)NC(=O)[C@@H](CCN)NC(=O)[C@H](CCC(=O)N[C@@H](CCN)C(=O)N[C@H](C(=O)N[C@@H](CCN)C(=O)N[C@H]2CCNC(=O)[C@H]([C@@H](C)O)NC(=O)[C@H](CCN)NC(=O)[C@H](CCN)NC(=O)[C@H](CC(C)C)NC(=O)[C@@H](CC(C)C)NC(=O)[C@H](CCN)NC2=O)[C@@H](C)O)NC(=O)[C@H](CCN)NC(=O)[C@H](Cc2ccc(O)cc2)NC1=O)C(C)C [Ex. 44] (I: Ac-VCY[Dab]E[dDab]TWS[Tle]CS-NH2 / II: [Dab]T[Dab][Dab][Dab][dL]L[Dab][Dab]T; disulfide I:2-I:11; amide I:5-II:N; lactam II:4-II:C) | <1% | 0.125 µg/mL (≈ 0.0512 µM) | 0.125 µg/mL (≈ 0.0512 µM) | 0.125 µg/mL (≈ 0.0512 µM) | 0.125 µg/mL (≈ 0.0512 µM) | 0.0625 µg/mL (≈ 0.0256 µM) | 0.25 µg/mL (≈ 0.102 µM) | 0.125 µg/mL (≈ 0.0512 µM) | 0.125 µg/mL (≈ 0.0512 µM) |
| CC(=O)N[C@H](C(=O)N[C@H]1CSSC[C@@H](C(=O)N[C@H](C(N)=O)[C@@H](C)O)NC(=O)[C@H](C(C)(C)C)NC(=O)[C@H](CO)NC(=O)[C@H](Cc2c[nH]c3ccccc23)NC(=O)[C@H](CO)NC(=O)[C@@H](CCN)NC(=O)[C@H](CCC(=O)N[C@@H](CCN)C(=O)N[C@H](C(=O)N[C@@H](CN)C(=O)N[C@H]2CCNC(=O)[C@H]([C@@H](C)O)NC(=O)[C@H](CCN)NC(=O)[C@H](CCN)NC(=O)[C@H]([C@H](C)O)NC(=O)[C@@H](CC(C)C)NC(=O)[C@H](CCN)NC2=O)[C@@H](C)O)NC(=O)[C@H](CCN)NC(=O)[C@H](Cc2ccc(O)cc2)NC1=O)C(C)C [Ex. 140] (I: Ac-VCY[Dab]E[dDab]SWS[Tle]CT-NH2 / II: [Dab]T[Dap][Dab][Dab][dL][aThr][Dab][Dab]T; disulfide I:2-I:11; amide I:5-II:N; lactam II:4-II:C) | <1% | 0.25 µg/mL (≈ 0.104 µM) | 0.25 µg/mL (≈ 0.104 µM) | 0.25 µg/mL (≈ 0.104 µM) | 0.125 µg/mL (≈ 0.0518 µM) | 0.125 µg/mL (≈ 0.0518 µM) | 0.5 µg/mL (≈ 0.207 µM) | 0.5 µg/mL (≈ 0.207 µM) | 0.125 µg/mL (≈ 0.0518 µM) |
| CC[C@@H]1NC(=O)[C@@H](CC(C)C)NC(=O)[C@H](CCN)NC(=O)[C@@H](NC(=O)[C@H](CN)NC(=O)[C@@H](NC(=O)[C@H](CCN)NC(=O)CC[C@@H]2NC(=O)[C@H](CCN)NC(=O)[C@H](Cc3ccc(O)cc3)NC(=O)[C@@H](NC(=O)[C@@H](NC(C)=O)C(C)C)CSSC[C@@H](C(=O)N[C@H](C(N)=O)[C@@H](C)O)NC(=O)[C@H]([C@@H](C)CC)NC(=O)[C@H](CO)NC(=O)[C@H](Cc3c[nH]c4ccccc34)NC(=O)[C@H](CO)NC(=O)[C@@H](CCN)NC2=O)[C@@H](C)O)CCNC(=O)[C@H]([C@@H](C)O)NC(=O)[C@H](CCN)NC(=O)[C@H](CCN)NC1=O [Ex. 143] (I: Ac-VCY[Dab]E[dDab]SWSICT-NH2 / II: [Dab]T[Dap][Dab][Dab][dL][Abu][Dab][Dab]T; disulfide I:2-I:11; amide I:5-II:N; lactam II:4-II:C) | 2% | 0.125 µg/mL (≈ 0.0521 µM) | 0.0625 µg/mL (≈ 0.0261 µM) | 0.125 µg/mL (≈ 0.0521 µM) | 0.0625 µg/mL (≈ 0.0261 µM) | 0.03125 µg/mL (≈ 0.013 µM) | 0.0625 µg/mL (≈ 0.0261 µM) | 0.03125 µg/mL (≈ 0.013 µM) | 0.0625 µg/mL (≈ 0.0261 µM) |
| CC(C)C[C@@H]1NC(=O)[C@@H](CC(C)C)NC(=O)[C@H](CCN)NC(=O)[C@@H](NC(=O)[C@H](CCN)NC(=O)[C@@H](NC(=O)[C@H](CCN)NC(=O)CC[C@@H]2NC(=O)[C@H](CCN)NC(=O)[C@H](Cc3ccc(O)cc3)NC(=O)[C@@H](NC(=O)[C@@H](N)C(C)C)CSSC[C@@H](C(=O)N[C@@H](CO)C(=O)O)NC(=O)[C@H](C(C)(C)C)NC(=O)[C@H](CO)NC(=O)[C@H](Cc3c[nH]c4ccccc34)NC(=O)[C@H]([C@@H](C)O)NC(=O)[C@@H](CCN)NC2=O)[C@@H](C)O)CCNC(=O)[C@H]([C@@H](C)O)NC(=O)[C@H](CCN)NC(=O)[C@H](CCN)NC1=O [Ex. 53] (I: H-VCY[Dab]E[dDab]TWS[Tle]CS-OH / II: [Dab]T[Dab][Dab][Dab][dL]L[Dab][Dab]T; disulfide I:2-I:11; amide I:5-II:N; lactam II:4-II:C) | <1% | 0.125 µg/mL (≈ 0.0521 µM) | 8 µg/mL (≈ 3.33 µM) | 0.5 µg/mL (≈ 0.208 µM) | 0.125 µg/mL (≈ 0.0521 µM) | 0.125 µg/mL (≈ 0.0521 µM) | 4 µg/mL (≈ 1.67 µM) | 0.5 µg/mL (≈ 0.208 µM) | 0.25 µg/mL (≈ 0.104 µM) |
| CC(=O)N[C@H](C(=O)N[C@H](C(=O)N[C@@H](Cc1ccc(O)cc1)C(=O)N[C@H]1CSSC(C)(C)[C@@H](C(=O)N[C@H](C(=O)N[C@H](C(=O)N[C@H](C(N)=O)[C@@H](C)O)[C@@H](C)O)C(C)(C)C)NC(=O)[C@H](Cc2c[nH]c3ccccc23)NC(=O)[C@H](CO)NC(=O)[C@@H](CCN)NC(=O)[C@H](CCC(=O)N[C@@H](CCN)C(=O)N[C@H](C(=O)N[C@@H](CN)C(=O)N[C@H]2CCNC(=O)[C@H]([C@@H](C)O)NC(=O)[C@H](CCN)NC(=O)[C@H](CCN)NC(=O)[C@H](CC(C)C)NC(=O)[C@@H](CC(C)C)NC(=O)[C@H](CCN)NC2=O)[C@@H](C)O)NC1=O)[C@@H](C)O)C(C)C [Ex. 221] (I: Ac-VTYCE[dDab]SW[Pen][Tle]TT-NH2 / II: [Dab]T[Dap][Dab][Dab][dL]L[Dab][Dab]T; disulfide I:4-I:9; amide I:5-II:N; lactam II:4-II:C) | 2% | 0.125 µg/mL (≈ 0.0506 µM) | 0.125 µg/mL (≈ 0.0506 µM) | 0.125 µg/mL (≈ 0.0506 µM) | 0.125 µg/mL (≈ 0.0506 µM) | 0.0625 µg/mL (≈ 0.0253 µM) | 0.25 µg/mL (≈ 0.101 µM) | 0.0625 µg/mL (≈ 0.0253 µM) | 0.0625 µg/mL (≈ 0.0253 µM) |
